The text below walks through data of ChEMBL document CHEMBL2057081, “Triterpenoid saponins from Xanthoceras sorbifolia Bunge and their inhibitory activity on human cancer cell lines” (Bioorg Med Chem Lett, 2012).

The structures appear in SMILES notation.

Common to all, as to format: functional, cell-based
Experiment [1] is described as follows: Cytotoxicity against human A375-S2 cells by MTT assay. Background: Tetrazolium assays rely on reduction of a dye to a coloured formazan, in cell work by metabolically active cells.
Experiment [2] relates to PC-3. Put plainly: Cytotoxicity against human PC3 cells by MTT assay.
For experiment [3], the system named is BGC-823. Put plainly: Cytotoxicity against human BGC823 cells by MTT assay.
The subject of experiment [4] is MCF7. Put plainly: Cytotoxicity against human MCF7 cells by MTT assay.
The test system of experiment [5] is A549. Put plainly: Cytotoxicity against human A549 cells by MTT assay.
Experiment [6] in a line: Cytotoxicity against human MDA231 cells by MTT assay. The following applies: MDA-MB-231.
Experiment [7] has as its system HT-1080. Put plainly: Cytotoxicity against human HT1080 cells by MTT assay.
The test system of experiment [8] is HeLa. Put plainly: Cytotoxicity against human HeLa cells by MTT assay.
The test system of experiment [9] is HEp-2. The experiment is described as follows: Cytotoxicity against human Hep2 cells by MTT assay.
Experiment [10] deals with HepG2. The experiment is described as follows: Cytotoxicity against human HepG2 cells by MTT assay.

With `C/C=C(/C)C(=O)O[C@@H]1[C@@H](O)[C@H](O[C@H]2[C@H](OC(C)=O)[C@]3(CO)[C@H](O)C[C@]4(C)C(=CC[C@@H]5[C@@]6(C)CC[C@H](O[C@@H]7O[C@H](C(=O)O)[C@@H](O)[C@H](O)[C@H]7O[C@@H]7O[C@H](CO)[C@@H](O)[C@H](O)[C@H]7O)[C@](C)(CO)[C@@H]6CC[C@]54C)[C@@H]3CC2(C)C)O[C@H](C)[C@@H]1OC(C)=O` [BUNKANKASAPONIN A], the 50% inhibitory concentration (IC50) (as a rule, the concentration that inhibits the measured activity by half) in [1] is 18.1 µM; in [2], 13.1 µM; in [3] it was 17.5 µM; in experiment [4], 12.7 µM; in experiment [5] it was 41 µM; in [6] it was 12.2 µM. The half-maximal inhibitory concentration (IC50) in [7] is 16.3 µM; in experiment [8], 22.2 µM; in experiment [9], 17.6 µM; in experiment [10], 22.2 µM.

Take `C/C=C(/C)C(=O)O[C@@H]1[C@@H](O)[C@H](O[C@H]2[C@H](OC(C)=O)[C@]3(CO)[C@H](O)C[C@]4(C)C(=CC[C@@H]5[C@@]6(C)CC[C@H](O[C@@H]7O[C@H](C(=O)O)[C@@H](O)[C@H](O)[C@H]7O[C@@H]7O[C@H](CO)[C@@H](O)[C@H](O)[C@H]7O)[C@](C)(CO)[C@@H]6CC[C@]54C)[C@@H]3CC2(C)C)O[C@H](C)[C@@H]1OC(=O)/C(C)=C\C` [BUNKANKASAPONIN B]: the IC50 was determined as 4.14 µM in experiment [1]; 2.58 µM in experiment [2]; 2.5 µM in experiment [3]; 2.46 µM in experiment [4]; 3.03 µM in [5]; 2.22 µM in experiment [6]. For the same compound, the IC50 in experiment [7] was found to be 1.14 µM; in [8], 4.03 µM; in [9], 4.72 µM; in experiment [10], 4.03 µM.

Consider `C/C=C(/C)C(=O)O[C@@H]1[C@@H](O)[C@H](O[C@H]2[C@H](O)[C@]3(COC(C)=O)[C@H](O)C[C@]4(C)C(=CC[C@@H]5[C@@]6(C)CC[C@H](O[C@@H]7O[C@H](C(=O)O)[C@@H](O)[C@H](O)[C@H]7O[C@@H]7O[C@H](CO)[C@@H](O)[C@H](O)[C@H]7O)[C@](C)(CO)[C@@H]6CC[C@]54C)[C@@H]3CC2(C)C)O[C@H](C)[C@@H]1OC(C)=O` [BUNKANKASAPONIN C], for which the half-inhibitory concentration (IC50) was determined as 23.3 µM in experiment [1]; 92.5 µM in experiment [2]; 82.6 µM in experiment [3]; 91.4 µM in [4]; 76.8 µM in experiment [5]; 45.1 µM in experiment [6]. Further, the half-maximal inhibitory concentration (IC50) was > 100 µM in [7], > 100 µM in [8], > 100 µM in experiment [9] and 60.8 µM in experiment [10].

For the compound `C/C=C(/C)C(=O)O[C@@H]1[C@@H](O)[C@H](O[C@H]2[C@H](O)[C@]3(COC(C)=O)[C@H](O)C[C@]4(C)C(=CC[C@@H]5[C@@]6(C)CC[C@H](O[C@@H]7O[C@H](C(=O)O)[C@@H](O)[C@H](O)[C@H]7O[C@@H]7O[C@H](CO)[C@@H](O)[C@H](O)[C@H]7O)[C@](C)(CO)[C@@H]6CC[C@]54C)[C@@H]3CC2(C)C)O[C@H](C)[C@@H]1OC(=O)/C(C)=C\C` [BUNKANKASAPONIN D], the IC50 came out at 20.4 µM in experiment [1]; 13.2 µM in experiment [2]; 23.9 µM in experiment [3]; 49.4 µM in experiment [4]; 31.7 µM in experiment [5]; 21.8 µM in experiment [6]. The IC50 in experiment [7] was > 100 µM; in experiment [8], 55.5 µM; in experiment [9], > 100 µM; in experiment [10], 33.1 µM.

Consider `C/C=C(/C)C(=O)O[C@@H]1[C@@H](O)[C@H](O[C@H]2[C@H](OC(C)=O)[C@]3(CO)[C@H](O)C[C@]4(C)C(=CC[C@@H]5[C@@]6(C)CC[C@H](O[C@@H]7O[C@H](C(=O)O)[C@@H](O)[C@H](O)[C@H]7O[C@@H]7O[C@H](CO)[C@@H](O)[C@H](O)[C@H]7O)C(C)(C)[C@@H]6CC[C@]54C)[C@@H]3CC2(C)C)O[C@H](C)[C@@H]1OC(=O)/C(C)=C\C` [BUNKANKASAPONIN F], for which the IC50 in [1] worked out at 5.22 µM; in experiment [2], 2.28 µM; in [3] it was 11.3 µM; in experiment [4], 4.3 µM; in experiment [5], 5.76 µM; in experiment [6], 3.24 µM. Moreover, the half-maximal inhibitory concentration (IC50) in [7] is 1.75 µM; in experiment [8], 4.97 µM; in experiment [9], 4.97 µM; in experiment [10], 2.45 µM.

As to `O=c1[nH]cc(F)c(=O)[nH]1` [FLUOROURACIL], the IC50 amounted to 9.92 µM in experiment [1]; 35.8 µM in experiment [2]; 15.7 µM in [3]; 24.6 µM in experiment [4]; 31.5 µM in experiment [5]; 31.6 µM in experiment [6]. The 50% inhibitory concentration (IC50) was 3.06 µM in experiment [7], 10.4 µM in experiment [8], 24.6 µM in experiment [9] and 10.5 µM in experiment [10].

In the case of `CC1(C)C[C@H]2C3=CC[C@@H]4[C@@]5(C)CC[C@H](O[C@@H]6O[C@H](CO[C@@H]7O[C@H](CO)[C@@H](O)[C@H](O)[C@H]7O)[C@@H](O)[C@H](O)[C@H]6O)C(C)(C)[C@@H]5CC[C@@]4(C)[C@]3(C)CC[C@@]2(CO[C@@H]2O[C@H](CO[C@@H]3O[C@H](CO)[C@@H](O)[C@H](O)[C@H]3O)[C@@H](O)[C@H](O)[C@H]2O[C@@H]2O[C@H](CO)[C@@H](O)[C@H](O)[C@H]2O)[C@@H](O)[C@@H]1O` [SORBIFOLIASIDE A], the IC50 in experiment [1], in experiment [2], in [3], in [4], in experiment [5] and in experiment [6] was > 100 µM each time. In addition, the half-inhibitory concentration (IC50) in experiment [7], in experiment [8], in [9] and in experiment [10] was > 100 µM in each case.

On to `CC1(C)C[C@H]2C3=CC[C@@H]4[C@@]5(C)CC[C@H](O[C@@H]6O[C@H](CO[C@@H]7O[C@H](CO)[C@@H](O)[C@H](O)[C@H]7O)[C@@H](O)[C@H](O)[C@H]6O)C(C)(C)[C@@H]5CC[C@@]4(C)[C@]3(C)CC(=O)[C@@]2(CO[C@@H]2O[C@H](CO[C@@H]3O[C@H](CO)[C@@H](O)[C@H](O)[C@H]3O)[C@@H](O)[C@H](O)[C@H]2O[C@@H]2O[C@H](CO)[C@@H](O)[C@H](O)[C@H]2O)[C@@H](O)[C@@H]1O` [SORBIFOLIASIDE B], for which the IC50 in experiment [1], in experiment [2], in experiment [3], in experiment [4], in [5] and in experiment [6] was > 100 µM each time. For the same compound, the 50% inhibitory concentration (IC50) in experiment [7], in experiment [8], in [9] and in experiment [10] was > 100 µM throughout.

Take `CC1(C)C[C@H]2C3=CC[C@@H]4[C@@]5(C)CC[C@H](O[C@@H]6O[C@H](CO[C@@H]7O[C@H](CO)[C@@H](O)[C@H](O)[C@H]7O)[C@@H](O)[C@H](O)[C@H]6O[C@@H]6O[C@H](CO)[C@@H](O)[C@H](O)[C@H]6O)C(C)(C)[C@@H]5CC[C@@]4(C)[C@]3(C)CC(=O)[C@@]2(CO[C@@H]2O[C@H](CO[C@@H]3O[C@H](CO)[C@@H](O)[C@H](O)[C@H]3O)[C@@H](O)[C@H](O)[C@H]2O)[C@@H](O)[C@@H]1O` [SORBIFOLIASIDE C]: the IC50 in experiment [1], in [2], in [3], in experiment [4], in [5] and in [6] was > 100 µM throughout. For the same compound, the IC50 in experiment [7], in experiment [8], in [9] and in experiment [10] was > 100 µM in each case.

Consider `C/C=C(/C)C(=O)O[C@@H]1[C@@H](O)[C@H](O[C@H]2CC[C@]3(C)[C@H]4CC=C5[C@@H]6CC(C)(C)[C@@H](O)[C@H](O)[C@]6(CO[C@@H]6O[C@H](CO[C@@H]7O[C@H](CO)[C@@H](O)[C@H](O)[C@H]7O)[C@@H](O)[C@H](O)[C@H]6O)CC[C@@]5(C)[C@]4(C)CC[C@H]3C2(C)C)O[C@H](CO[C@@H]2O[C@H](CO)[C@@H](O)[C@H](O)[C@H]2O)[C@H]1O` [SORBIFOLIASIDE D], for which the IC50 in experiment [1], in experiment [2], in experiment [3], in experiment [4], in [5] and in experiment [6] was > 100 µM throughout. The IC50 in experiment [7], in experiment [8], in [9] and in experiment [10] was > 100 µM in each case.

Consider `C/C=C(/C)C(=O)O[C@@H]1[C@@H](O)[C@H](O[C@H]2CC[C@]3(C)[C@H]4CC=C5[C@@H]6CC(C)(C)[C@@H](O)[C@H](O)[C@]6(CO[C@@H]6O[C@H](CO[C@@H]7O[C@H](CO)[C@@H](O)[C@H](O)[C@H]7O)[C@@H](O)[C@H](O)[C@H]6O)C(=O)C[C@@]5(C)[C@]4(C)CC[C@H]3C2(C)C)O[C@H](CO[C@@H]2O[C@H](CO)[C@@H](O)[C@H](O)[C@H]2O)[C@H]1O` [SORBIFOLIASIDE E], for which the 50% inhibitory concentration (IC50) in experiment [1], in [2], in experiment [3], in [4], in experiment [5] and in [6] was > 100 µM in each case. The IC50 in [7], in [8], in [9] and in experiment [10] was > 100 µM throughout.
